Experimental data taken from ChEMBL document CHEMBL1201862, “PubChem BioAssay data set” (2004).
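Protocol summary: plate cells (96-well), add compound at 5 concentrations, incubate 48 h, interpolate endpoints linearly. GI50: concentration for 50% inhibition of growth.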 Active and inactive are the calls of the source. No stated cut-off is given here; in the data, active = GI50 up to about 1.1 µM and inactive = higher.

Legend:
Assay in all cases: NCI-60 cell line screen, 48 h
UACC-62 = system: UACC-62
RXF 393 = system: RXF 393
SN12C = system: SN12C
SK-MEL-2 = system: SK-MEL-2
SK-MEL-28 = system: SK-MEL-28
KM12 = system: KM12
MDA-N = system: MDA-N
OVCAR-8 = system: OVCAR-8
CAKI-1 = system: CAKI-1
HCC 2998 = system: HCC 2998
HCT-116 = system: HCT-116
A498 = system: A498
MCF7 = system: MCF7
LOX IMVI = system: LOX IMVI
M14 = system: M14
Hs-578T = system: Hs-578T
SF-268 = system: SF-268
HCT-15 = system: HCT-15
HOP-92 = system: HOP-92
UACC-257 = system: UACC-257

Measured: GI50

COc1ccc(N2C(=O)C3c4[nH]c5cccc(C)c5c4C4CCC(C(C)(C)C)CC4C3C2=O)cc1 (stereo not drawn)
> 10 µM: HCT-15
inactive: UACC-62 > 10 µM | RXF 393 > 10 µM | SN12C > 10 µM | SK-MEL-2 > 10 µM | SK-MEL-28 > 10 µM | KM12 > 10 µM | MDA-N > 10 µM | OVCAR-8 > 10 µM | CAKI-1 > 10 µM | HCC 2998 > 10 µM | HCT-116 5.62 µM | A498 > 10 µM | MCF7 > 10 µM | LOX IMVI 8.3 µM | M14 > 10 µM | Hs-578T > 10 µM | SF-268 > 10 µM

Nc1nc2c(c(-c3ccc(F)cc3)n1)COC/C2=C\c1ccc(F)cc1
inactive: UACC-62 79.4 µM | RXF 393 52.7 µM | SN12C > 100 µM | SK-MEL-2 > 100 µM | HOP-92 30.4 µM | SK-MEL-28 > 100 µM | KM12 15.7 µM | MDA-N > 100 µM | OVCAR-8 58.2 µM | CAKI-1 > 100 µM | HCC 2998 30.8 µM | A498 > 100 µM | MCF7 28.1 µM | M14 > 100 µM | Hs-578T 33.4 µM | SF-268 14.5 µM | UACC-257 45.6 µM
> 100 µM: HCT-15

CCn1nc(C)c2c1C(=O)NC(C)C(=O)N2 (stereo not drawn)
inactive: UACC-62 > 100 µM | RXF 393 > 100 µM | SN12C 36.6 µM | HOP-92 > 100 µM | SK-MEL-28 > 100 µM | KM12 > 10 µM | MDA-N > 100 µM | OVCAR-8 > 100 µM | CAKI-1 > 100 µM | HCT-116 > 100 µM | A498 > 100 µM | M14 > 100 µM | Hs-578T > 100 µM | SF-268 > 100 µM | UACC-257 > 100 µM
15.1 µM: HCT-15

C=C(Br)CNC(=O)CCC(=O)NCC(=C)Br
> 100 µM: HCT-15
inactive: UACC-62 > 100 µM | RXF 393 > 100 µM | SN12C > 100 µM | SK-MEL-2 > 100 µM | SK-MEL-28 > 100 µM | KM12 > 100 µM | MDA-N > 100 µM | OVCAR-8 > 100 µM | CAKI-1 > 100 µM | HCC 2998 > 100 µM | HCT-116 > 100 µM | A498 > 100 µM | MCF7 > 100 µM | LOX IMVI > 100 µM | M14 > 100 µM | Hs-578T > 100 µM | SF-268 > 100 µM | UACC-257 > 100 µM

O=C(CSCC(=O)N/N=C/c1cccc(C(F)(F)F)c1)N/N=C/c1cccc(C(F)(F)F)c1
> 100 µM: HCT-15
inactive: UACC-62 > 100 µM | RXF 393 > 100 µM | SK-MEL-2 > 100 µM | HOP-92 > 100 µM | SK-MEL-28 > 100 µM | OVCAR-8 2.9 µM | CAKI-1 > 100 µM | HCC 2998 > 100 µM | A498 > 100 µM | MCF7 > 100 µM | LOX IMVI > 100 µM | M14 > 100 µM | Hs-578T > 100 µM | SF-268 > 100 µM | UACC-257 > 100 µM

O=S(=O)(O)c1cc(S(=O)(=O)O)c2cc(/N=N/c3ccc(/N=N/c4ccc(/C=C/c5ccc(/N=[N+](/[O-])c6ccc(/C=C/c7ccc(/N=N/c8ccc(/N=N/c9ccc%10cc(S(=O)(=O)O)cc(S(=O)(=O)O)c%10c9)cc8)cc7S(=O)(=O)O)c(S(=O)(=O)O)c6)cc5S(=O)(=O)O)c(S(=O)(=O)O)c4)cc3)ccc2c1
inactive: UACC-62 7.93 µM | RXF 393 > 50.9 µM | SN12C > 54.1 µM | SK-MEL-2 83.9 µM | HOP-92 > 58.5 µM | SK-MEL-28 > 100 µM | KM12 26.7 µM | OVCAR-8 > 78.7 µM | HCC 2998 > 61.2 µM | HCT-116 > 28.6 µM | A498 > 100 µM | MCF7 > 100 µM | LOX IMVI > 59.7 µM | SF-268 > 69 µM | UACC-257 > 60.3 µM
52.6 µM: HCT-15
